Holding throughout (type): cell-based, human
Assay [1] relates to HEK‐293. Description: MTT cytotoxicity assay in control cell line HEK-293. The settings on record: compound alone, non-tumoral control cell line, read-out: IC50 (μM) in HEK‐293 (mean ± SD). The protocol: (§1) TNBC cell lines (ER^−, PR^−, HER2^−)—MDA‐MB‐231 (ATCC HTB‐26) and MDA‐MB‐468 (ATCC HTB‐132) were procured from ATCC and cultured in Roswell Park Memorial Institute Media (RPMI‐1640) and Dulbecco's Modified Eagle's Medium (DMEM), respectively, supplemented with 10% FBS and 1% Penicillin–Streptomycin solution. Cells were maintained at 5% CO2 at 37°C in a humid atmosphere.[6], [26] The control cell line, Human Embryonic Kidney—HEK‐293 (ATCC CRL‐3216) was also obtained from ATCC and cultured in DMEM.[5], [25]
(§2) To evaluate the cytotoxicity profile of the potential EGFR inhibitors (compounds) against TNBC cell lines—MDA‐MB‐231, MDA‐MB‐468, and control cell line HEK293, cells were seeded at a cell density of 5 × 10^3 cells/well in complete medium onto 96‐well plates. Here, the non‐tumoral human embryonic kidney (HEK293) epithelial cells have been utilized as a control cell line to compare the IC50 values of the compounds between cancerous and non‐cancerous cell lines with a big therapeutic window. The use of HEK293 cells as compared to other non‐cancerous cell lines are easy to maintain in culture and the results obtained from HEK293 are highly reproducible and consistent.[27] Briefly, the cells were incubated at 37°C for 12 h to attain morphology. After 12 h, cells were serum starved by replacing the complete media with media containing 2% FBS to synchronize the cells. Post‐12 h of synchronization, cells were treated with an increasing concentration (0.1, 1, 10, 100 μM) of all the compounds (1a, 1b, 1c, 1d, 1e, 1f, 1g, 1h, 1i, 1j, 1k). Separately, TNBC cells were treated with increasing concentration (0.01, 0.1, 1 μM) of Doxorubicin (Sigma‐Aldrich, St Louis, MO, USA) in presence of the selected compounds (1c, 1e, 1g, 1h, 1j, and 1k) at 5 μM concentration or combination of selected compounds (1c, 1e, 1g, 1h, 1j, and 1k) at increasing concentration (1, 2.5, 5, 10 μM) in presence of Doxorubicin (0.01 μM) for 48 h. In addition, the CD24^+‐breast cancer cells and CD24^−/CD44^+‐breast CSC populations, being sorted by Magnetic Activated Cell Sorting (MACS) from MDA‐MB‐231 cells as described previously,[6] were also treated with increasing concentrations of Doxorubicin (0.01–1 μM), in the presence or absence of 1e (10–30 μM), or PD153035 (10 μM) (Sigma‐Aldrich, St Louis, MO, USA). MTT assay was performed to evaluate the cytotoxicity of these compounds against the TNBC cell lines, and the sorted populations as described previously.[6] All the experiments were performed thrice and the IC50 values of the compounds and Doxorubicin were calculated using GraphPad Prism software version 9 (San Diego, CA, USA). Similarly, the percent inhibition of the sorted cell populations by chemotherapeutic drug, doxorubicin in the absence/presence of potent compound 1e or standard EGFR inhibitor, PD153035 was evaluated utilizing GraphPad Prism Version 9 (San Diego, CA, USA).
(In general: Tetrazolium assays rely on reduction of a dye to a coloured formazan, in cell work by metabolically active cells.)

The subject of assay [2] is MDA‐MB‐231. Kind of assay: MTT cytotoxicity assay in MDA-MB-231. The settings on record: compound alone, MTT, 48 h; read-out: IC50 (μM) in MDA‐MB‐231 (mean ± SD). The protocol: as §1, §2
Assay [3] deals with Bax and Cytochrome‐C in MDA‐MB‐231 cells. Kind of assay: Gene expression of apoptotic genes, semi-quantitative RT-PCR. The settings on record: MDA-MB-231, doxorubicin + compound 5 μM, 24 h. The method, then: Briefly, the cells were incubated at 37°C with serum starvation followed by culturing as described above. […] Briefly, the template RNA (1 μg) was utilized for cDNA synthesis using a First‐strand cDNA synthesis kit (Thermo Scientific, USA) according to the manufacturer's protocol. Thermal cycler (Mastercycler® nexus, Eppendorf) was used for the amplification of the expression of apoptotic genes—Bax, Bcl2, Cytochrome‐C, and target gene EGFR with the help of Dream Taq DNA Polymerase PCR Master Mix (Thermo Scientific, USA) along with human gene‐specific forward and reverse primer sequences of the apoptotic genes and EGFR (Table ST1). The expression of the target genes was normalized to the Eukaryotic 18S rRNA.

The subject of assay [4] is CD24^+‐breast cancer cells. Description: Cell migration (chemotaxis), Boyden-Chamber assay, sorted cells. Conditions: Doxorubicin 0.01 μM + 1e 5 μM vs 10% FBS. The method, then:
(§3) TNBC cell lines—MDA‐MB‐231, MDA‐MB‐468, and the sorted CD24^+‐breast cancer cells, and CD24^−/CD44^+‐breast CSC populations from MDA‐MB‐231 [6] were seeded at a density of 1 × 10^6 cells/well to evaluate their migratory potential by Boyden‐Chamber assay. […] At the end of the treatment period, the cells were plated at a density of 5 × 10^3 cells/well in the upper chamber of the Boyden chamber assembly and 10% FBS in the lower chamber was used as a chemoattractant. Separately, the cells in the upper chamber were treated with Doxorubicin (0.01–0.1 μM) alone or with the potential EGFR inhibitors (compounds—1c, 1e, 1g, 1h, 1j, and 1k (5 μM) based on their low IC50 values) or a commercial EGFR inhibitor, PD153035 (10 μM) and incubated for 4 h followed by fixation and staining as described previously.[28], [29]

Assay [5] concerns CD24^−/CD44^+‐breast CSC populations. The assay is described as above. Conditions: sorted CD24^−/CD44^+ CSCs; Doxorubicin 0.01 μM + 1e 5 μM vs 10% FBS. The method, then: as §3
The subject of assay [6] is MDA‐MB‐231 cells. Description: Apoptosis assay, Hoechst 33342 staining. Conditions: MDA-MB-231, combinatorial treatment with doxorubicin, 48 h, vs other treatment groups. The protocol:
MDA‐MB‐231 cells were seeded at a density of 3 × 10^4 cells/well and cultured on a coverslip for 24 h at 37°C followed by 12 h serum starvation in 6‐well plates. The cells were treated with Doxorubicin (0.01 and 0.1 μM) in the absence or presence of compounds—1c, 1e, 1g, 1h, 1j, and 1k and incubated for 48 h. Post‐treatment, the cells were fixed using 4% Paraformaldehyde and stained with Hoechst 33342 dye (2 mg/mL; Invitrogen, USA) for 30 min. Apoptotic cells were identified by visualizing the fragmentation and condensation of nuclei using a confocal microscope (Olympus, USA).[30]

Each structure is given as a SMILES string.

By IC50 is commonly meant the concentration that inhibits the measured activity by half. `c1cncc(C(c2c[nH]c3ccccc23)c2c[nH]c3ccccc23)c1` [1e]: the IC50 in assay [1] turned out to be 278 ± 13.5 µM; in assay [2] it was 18.6 ± 1.84 µM. Moreover, in assay [3], the “expression of pro‐apoptotic genes Bax and Cytochrome‐C” value is given as “marked increase”. The migratory potential result in assay [4] and in assay [5] was “significantly reduced” in each case. The “doxorubicin‐induced nuclear fragmentation (apoptosis)” value in assay [6] is “markedly increased”.
